Assay results published in patent US12410164B2, “Heterocyclic compounds and medical use thereof” (FONDAZIONE TELETHON, priority 2018, dated 2025).

Molecular target: F508del-CFTR (Homo sapiens, UniProt P13569, DEL508-508)
Test: HS-YFP kinetic fluorescence (iodide quenching rate) assay in CFBE41o− cells
Format: cell-based
Parameters: expressed in transfected cells; host or cells: CFBE41o- cells with expression of F508del-CFTR and HS-YFP (generated as in Sondo et al. 2011)
Settings: for AI additivity index / AI (%) additivity index: compound at 10 μM plus VX-809; for AI (%) additivity index: Table 1, HS-YFP assay; for structure-activity comparison of corrector potency/activity: relative to the analogue
Protocol: CFBE41o- cells, with expression of F508del-CFTR and halogen-sensitive fluorescent protein, were generated as previously described (Sondo E, et al. Am J Physiol. 2011, 301, […]-[…]). For the test, the cells were seeded in 96-well microplates using a culture medium consisting of DMEM and Ham's F12 (1:1) supplemented with 10% foetal bovine serum. After 24 hours from seeding, the cells were treated for another 24 hours with the test compounds dissolved in the culture medium at the desired concentrations. As a negative control, the solvent of the compounds (dimethyl sulfoxide, DMSO) dissolved in the medium with the same dilution ratio (final percentage of DMSO:0.1-0.2%) was used. As a positive control, the corrector VX-809 (Selleck Chemicals, […]) was used at a concentration of 1 μM. After treatment, the medium with the compounds was removed and the cells were stimulated with forskolin (Sigma-Aldrich, F6886) 20 μM plus genistein (Sigma-Aldrich, G6649) 50 μM (in 60 μl of PBS saline) to maximally activate the CFTR channels present in the membrane. In a microplate reader (FLUOstar-Omega, BMG) the fluorescence of the cells in each well was read for 14 seconds, with an injection of 165 μl of a iodide-enriched saline (modified PBS where NaCl, 137 mM, has been replaced with the same concentration of NaI). The iodide transport activity in each well was evaluated by subtraction of the background fluorescence (measured in a well without cells), subsequent normalization with respect to the initial fluorescence and finally by interpolation of the fluorescence quenching phase with an exponential function that allows the derivation of the maximum slope (quenching rate, QR). The activity of the synthesized compounds was initially evaluated on the CFBE41o- cell line with expression of the mutated F508del-CFTR protein described above (Sondo E, et al. Am J Physiol. 2011, 301, […]-[…]). For this purpose, a functional assay based on the fluorescent YFP protein sensitive to halides, HS-YFP, was used (Galietta L J, et al. J Biol Chem. 2001, 276, 19723-19728). The fluorescence of the HS-YFP protein is turned off by iodide. Therefore, if exposed to a solution containing iodide, cells with HS-YFP expression show a quenching speed of the fluorescence which depends on the presence and activity of anionic channels. Under control conditions, the mutated CFTR protein presents a serious defect of stability and maturation, so it remains trapped in the endoplasmic reticulum not reaching the cell surface in enough quantity. In the HS-YFP-based assay, this defect results in a low anion transport capacity and therefore in a low quenching rate (QR). Treatment for a prolonged time (e.g. 24 hours) with a corrector determines an improvement in protein maturation with an increase in the number of CFTR channels present in the membrane and therefore an increase in the flux of iodide and QR. In a first phase, the authors screened about 200 heterocyclic molecules with various nitrogenated tricyclic scaffolds. Conditions previously described have been used for screening (Sondo E, et al. Am J Physiol. 2011, 301, […]-[…]) and reported herein in the Materials and Methods section. A threshold equal to the average value plus three times the standard deviation of the QR of wells without compounds (only DMSO in the culture medium) was used as a criterion for the selection of active compounds.

F508del-CFTR, sequence (P13569 with tags, fused parts or gaps DEL508-508): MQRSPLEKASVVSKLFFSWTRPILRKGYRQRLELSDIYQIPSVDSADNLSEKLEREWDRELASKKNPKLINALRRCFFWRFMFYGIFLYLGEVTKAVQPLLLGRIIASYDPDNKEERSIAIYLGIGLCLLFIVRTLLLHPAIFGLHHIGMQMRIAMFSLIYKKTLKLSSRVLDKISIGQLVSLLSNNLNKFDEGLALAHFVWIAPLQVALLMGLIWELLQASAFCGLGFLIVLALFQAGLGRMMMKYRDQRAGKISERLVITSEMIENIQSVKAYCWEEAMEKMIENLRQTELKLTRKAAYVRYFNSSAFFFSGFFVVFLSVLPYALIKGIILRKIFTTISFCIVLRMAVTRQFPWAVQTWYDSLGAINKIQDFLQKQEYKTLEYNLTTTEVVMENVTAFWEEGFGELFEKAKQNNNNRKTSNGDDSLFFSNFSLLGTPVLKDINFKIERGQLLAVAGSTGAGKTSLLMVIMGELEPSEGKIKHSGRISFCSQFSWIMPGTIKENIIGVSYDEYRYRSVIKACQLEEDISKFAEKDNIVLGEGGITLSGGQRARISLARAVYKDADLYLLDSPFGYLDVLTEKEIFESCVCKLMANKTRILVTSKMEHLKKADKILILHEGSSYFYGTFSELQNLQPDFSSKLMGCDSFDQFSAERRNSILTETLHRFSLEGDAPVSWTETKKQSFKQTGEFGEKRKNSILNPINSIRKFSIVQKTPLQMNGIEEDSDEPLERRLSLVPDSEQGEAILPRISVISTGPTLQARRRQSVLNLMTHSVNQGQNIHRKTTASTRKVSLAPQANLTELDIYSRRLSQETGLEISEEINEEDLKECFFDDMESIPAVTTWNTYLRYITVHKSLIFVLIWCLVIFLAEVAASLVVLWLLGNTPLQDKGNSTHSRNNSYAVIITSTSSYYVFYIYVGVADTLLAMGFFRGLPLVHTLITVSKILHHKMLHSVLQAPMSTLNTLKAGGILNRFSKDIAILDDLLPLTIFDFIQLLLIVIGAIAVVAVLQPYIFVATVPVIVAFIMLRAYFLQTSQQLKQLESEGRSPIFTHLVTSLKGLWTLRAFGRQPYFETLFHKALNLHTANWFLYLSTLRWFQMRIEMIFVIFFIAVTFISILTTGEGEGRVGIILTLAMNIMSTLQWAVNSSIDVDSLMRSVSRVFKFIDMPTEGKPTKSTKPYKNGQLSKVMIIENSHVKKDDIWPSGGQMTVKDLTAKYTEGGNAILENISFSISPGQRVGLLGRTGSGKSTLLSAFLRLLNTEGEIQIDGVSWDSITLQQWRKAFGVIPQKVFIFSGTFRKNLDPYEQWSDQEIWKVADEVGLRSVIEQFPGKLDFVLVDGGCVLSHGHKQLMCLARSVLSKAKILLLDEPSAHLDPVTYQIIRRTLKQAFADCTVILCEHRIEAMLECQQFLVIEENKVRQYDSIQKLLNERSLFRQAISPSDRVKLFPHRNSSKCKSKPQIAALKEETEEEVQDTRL

Row | AI (%) additivity index ((QRTOT − QRVX)/QRVX) [%] | SMILES | further results
1 | – | CCOC(=O)c1c(Br)c2c(n1Cc1ccc(Br)cc1)-c1nc(NS(=O)(=O)c3ccccc3)ncc1CC2 [SVQ16, Ethyl 2-[(benzenesulfonyl)amino]-7-bromo-9-[(4-bromophenyl)methyl]-6,9-dihydro-5H-pyrrolo[3,2-h]quinazoline-8-carboxylate] | AI additivity index (Table 3, (QRTOT-QRVX)/QRVX): 98%
2 | 42 | CCOC(=O)c1cc2c(n1Cc1cccc(C)c1)-c1[nH]c(=O)c(S(=O)(=O)c3ccccc3)cc1CC2 [PP016, Ethyl 1-(3-methylbenzyl)-8-oxo-7-(phenylsulfonyl)-4,5,8,9-tetrahydro-1H-pyrrolo[3,2-h]quinoline-2-carboxylate] | –
3 | – | CCOC(=O)c1cc2c(n1Cc1ccc(C)cc1)-c1[nH]c(=O)c(S(=O)(=O)c3ccccc3)cc1CCC2 [PP048, Ethyl 8-(benzenesulfonyl)-1-[(4-methylphenyl)methyl]-9-oxo-1,4,5,6,9,10-hexahydropyrrolo[3′,2′:6,7]cyclohepta[1,2-b]pyridine-2-carboxylate] | AI additivity index (Table 2, (QRTOT − QRVX)/QRVX): 22%
4 | – | CCOC(=O)c1c(Br)c2c(n1Cc1ccc(C)cc1)-c1nc(NS(=O)(=O)c3ccccc3)ncc1CC2 [SVQ10, Ethyl 2-[(benzenesulfonyl)amino]-7-bromo-9-[(4-methylphenyl)methyl]-6,9-dihydro-5H-pyrrolo[3,2-h]quinazoline-8-carboxylate] | AI additivity index (Table 3, (QRTOT-QRVX)/QRVX): 134%
5 | – | CCOC(=O)c1c(Br)c2c(n1Cc1ccc(C)cc1)-c1[nH]c(=O)c(S(=O)(=O)c3ccccc3)cc1CCC2 [PP056, Ethyl 8-(benzenesulfonyl)-3-bromo-1-[(4-methylphenyl)methyl]-9-oxo-1,4,5,6,9,10-hexahydropyrrolo[3′,2′:6,7]cyclohepta[1,2-b]pyridine-2-carboxylate] | AI additivity index (Table 2, (QRTOT − QRVX)/QRVX): 60%; structure-activity comparison of corrector potency/activity: more potent than the non-halogenated analogues
6 | 284 | CCOC(=O)c1c(Br)c2c(n1CC1CC1)-c1[nH]c(=O)c(S(=O)(=O)c3ccccc3)cc1CC2 [PP065, Ethyl 7-(benzenesulfonyl)-3-bromo-1-(cyclopropylmethyl)-8-oxo-4,5,8,9-tetrahydro-1H-pyrrolo[3,2-h]quinoline-2-carboxylate] | –
7 | 34 | CCOC(=O)c1cc2c(n1CCCN(C)C)-c1[nH]c(=O)c(S(=O)(=O)c3ccccc3)cc1CC2 [PP075, Ethyl 7-(benzenesulfonyl)-1-[3-(dimethylamino)propyl]-8-oxo-4,5,8,9-tetrahydro-1H-pyrrolo[3,2-h]quinoline-2-carboxylate] | –
8 | 203 | CCOC(=O)c1cc2c(n1Cc1ccc(Cl)cc1)-c1[nH]c(=O)c(S(=O)(=O)c3ccccc3)cc1CC2 [PP017, Ethyl 1-(4-chlorobenzyl)-8-oxo-7-(phenylsulfonyl)-4,5,8,9-tetrahydro-1H-pyrrolo[3,2-h]quinoline-2-carboxylate] | –
9 | 175 | CCOC(=O)c1c(Br)c2c(n1Cc1c(C)cc(C)cc1C)-c1[nH]c(=O)c(S(=O)(=O)c3ccccc3)cc1CC2 [PP069, Ethyl 7-(benzenesulfonyl)-3-bromo-8-oxo-1-[(2,4,6-trimethylphenyl)methyl]-4,5,8,9-tetrahydro-1H-pyrrolo[3,2-h]quinoline-2-carboxylate] | –
10 | 146 | CCOC(=O)c1c(Br)c2c(n1Cc1ccc(I)cc1)-c1[nH]c(=O)c(S(=O)(=O)c3ccccc3)cc1CC2 [PP063, Ethyl 7-(benzenesulfonyl)-3-bromo-1-[(4-iodophenyl)methyl]-8-oxo-4,5,8,9-tetrahydro-1H-pyrrolo[3,2-h]quinoline-2-carboxylate] | –
11 | 25 | Cc1cccc(Cn2c(C(N)=O)cc3c2-c2[nH]c(=O)c(S(=O)(=O)c4ccccc4)cc2CC3)c1 [PP093, 7-(Benzenesulfonyl)-1-[(3-methylphenyl)methyl]-8-oxo-4,5,8,9-tetrahydro-1H-pyrrolo[3,2-h]quinoline-2-carboxamide] | –
12 | 56 | CCOC(=O)c1c(Br)c2c(n1Cc1ccc(C)cc1)-c1[nH]c(=O)c(S(=O)(=O)c3ccc(C)cc3)cc1CC2 [PP035, Ethyl 3-bromo-7-(4-methylbenzene-1-sulfonyl)-1-[(4-methylphenyl)methyl]-8-oxo-4,5,8,9-tetrahydro-1H-pyrrolo[3,2-h]quinoline-2-carboxylate] | –
13 | – | CCOC(=O)c1cc2c(n1Cc1ccc(C)c(C)c1)-c1nc(NS(=O)(=O)c3ccccc3)ncc1CC2 [SVQ13, Ethyl 2-[(benzenesulfonyl)amino]-9-[(3,4-dimethylphenyl)methyl]-6,9-dihydro-5H-pyrrolo[3,2-h]quinazoline-8-carboxylate] | AI additivity index (Table 3, (QRTOT-QRVX)/QRVX): 86%
14 | 174 | CC(C)OC(=O)c1cc2c(n1CC1CC1)-c1[nH]c(=O)c(S(=O)(=O)c3ccccc3)cc1CC2 [PP105, Propan-2-yl 7-(benzenesulfonyl)-1-(cyclopropylmethyl)-8-oxo-4,5,8,9-tetrahydro-1H-pyrrolo[3,2-h]quinoline-2-carboxylate] | –
15 | 185 | CCOC(=O)c1c(Br)c2c(n1Cc1ccccc1C)-c1[nH]c(=O)c(S(=O)(=O)c3ccccc3)cc1CC2 [PP027, Ethyl 3-bromo 1-(2-methylbenzyl)-8-oxo-7-(phenylsulfonyl)-4,5,8,9-tetrahydro-1H-pyrrolo[3,2-h]quinoline-2-carboxylate] | structure-activity comparison of corrector potency/activity: potency comparable to that of PP008
16 | 36 | Cc1cccc(Cn2c(C(=O)O)cc3c2-c2[nH]c(=O)c(S(=O)(=O)c4ccccc4)cc2CC3)c1 [PP090, 7-(Benzenesulfonyl)-1-[(3-methylphenyl)methyl]-8-oxo-4,5,8,9-tetrahydro-1H-pyrrolo[3,2-h]quinoline-2-carboxylic acid] | –
17 | 202 | CCOC(=O)c1c(I)c2c(n1Cc1ccc(C)cc1)-c1[nH]c(=O)c(S(=O)(=O)c3ccccc3)cc1CC2 [PP077, Ethyl 7-(benzenesulfonyl)-3-iodo-1-[(4-methylphenyl)methyl]-8-oxo-4,5,8,9-tetrahydro-1H-pyrrolo[3,2-h]quinoline-2-carboxylate] | –
18 | 279 | Cc1ccc(Cn2c(C(=O)OC(C)C)cc3c2-c2[nH]c(=O)c(S(=O)(=O)c4ccccc4)cc2CC3)cc1 [PP022, Propan-2-yl 7-(benzenesulfonyl)-1-[(4-methylphenyl)methyl]-8-oxo-4,5,8,9-tetrahydro-1H-pyrrolo[3,2-h]quinoline-2-carboxylate] | –
19 | 169 | CCOC(=O)c1cc2c(n1Cc1ccc(C)cc1)-c1[nH]c(=O)c(S(=O)(=O)c3ccccc3)cc1CC2 [PP007] | AI additivity index in the example of FIG. 1 (10 μM, with VX-809 1 μM, 24 h): 74%; F508del-CFTR activity (quenching rate) versus DMSO control (compound alone, 24 h treatment): significant increase in F508del-CFTR activity; F508del-CFTR activity (quenching rate) of combination with VX-809 (compound plus VX-809 1 μM, 24 h): greater than the sum of the single effects; screening outcome (QR above mean plus three SD of DMSO wells) (screen of about 200 heterocyclic molecules): active
20 | 96 | CCOC(=O)c1c(Br)c2c(n1Cc1cccc(C)c1)-c1[nH]c(=O)c(S(=O)(=O)c3ccc(Cl)cc3)cc1CC2 [PP030, Ethyl 3-bromo-7-[(4-chlorophenyl)sulfonyl]-1-(3-methylbenzyl)-8-oxo-4,5,8,9-tetrahydro-1H-pyrrolo[3,2-h]quinoline-2-carboxylate] | –
21 | 95 | CCOC(=O)c1cc2c(n1C)-c1[nH]c(=O)c(S(=O)(=O)c3ccccc3)cc1CC2 [PP010] | structure-activity comparison of corrector potency/activity: causes a reduction in activity
